Like-named read-outs stand apart in the source and are kept apart here.
Assays:
Type in all cases: in vivo
Heliothis virescens = Heliothis virescens (Tobacco Budworm) egg test on artificial diet; settings: 96 h, 200 ppm (concentration in well 18 ppm), eggs 0-24 h old on artificial diet, 4 days, egg mortality, larval mortality, growth regulation
Spodoptera littoralis = Spodoptera littoralis (Egyptian Cotton Leafworm) cotton leaf disc spray test; settings: foliar, 72 h, 200 ppm spray on cotton leaf discs, L1 larvae, mortality, feeding behavior, growth regulation 3 DAT
Tetranychus urticae = Tetranychus urticae (Two-Spotted Spider Mite) bean leaf disc spray test; settings: foliar, 192 h, read-out: control of Tetranychus urticae
Plutella xylostella = Plutella xylostella (Diamond Back Moth) artificial diet MTP test; settings: 144 h, 200 ppm (concentration in well 18 ppm), L2 larvae, 6 days, larval mortality, growth regulation
Diabrotica balteata = Diabrotica balteata (Corn Root Worm) artificial diet MTP test; settings: 120 h, 200 ppm (concentration in well 18 ppm), L2 larvae, 5 days, larval mortality, growth regulation
[1] = 200 ppm spray on bean leaf discs, mite populations of mixed ages, 8 days, egg, larval and adult mortality

Measured: pest or weed control at 200 ppm

COc1c(NC(=O)c2ccc(F)cc2F)cccc1C(=O)Nc1c(Cl)cc(C(F)(C(F)(F)F)C(F)(F)C(F)(F)F)cc1Br (stereo not drawn) [B23]
≥ 80%: Heliothis virescens | Spodoptera littoralis | Tetranychus urticae; [1] | Plutella xylostella

COc1c(NC(=O)c2ccc(C#N)cc2C)cccc1C(=O)Nc1c(C)cc(C(F)(C(F)(F)F)C(F)(F)F)cc1C [K4]
≥ 80%: Heliothis virescens | Spodoptera littoralis | Diabrotica balteata | Tetranychus urticae; [1] | Plutella xylostella

COc1c(NC(=O)c2ccc([N+](=O)[O-])c([N+](=O)[O-])c2)cccc1C(=O)Nc1c(Cl)cc(C(F)(C(F)(F)F)C(F)(F)C(F)(F)F)cc1Br (stereo not drawn) [B195]
≥ 80%: Heliothis virescens | Spodoptera littoralis | Tetranychus urticae | Plutella xylostella

COc1c(NC(=O)c2ccc([N+](=O)[O-])c(C(F)(F)F)c2)cccc1C(=O)Nc1c(Cl)cc(C(F)(C(F)(F)F)C(F)(F)C(F)(F)F)cc1Br (stereo not drawn) [B179]
≥ 80%: Heliothis virescens | Spodoptera littoralis | Diabrotica balteata | Tetranychus urticae; [1] | Plutella xylostella

COc1c(NC(=O)c2sc(C(F)(F)F)nc2C)cccc1C(=O)Nc1c(Cl)cc(C(F)(C(F)(F)F)C(F)(F)C(F)(F)F)cc1Br (stereo not drawn) [B104]
≥ 80%: Heliothis virescens | Spodoptera littoralis | Tetranychus urticae; [1] | Plutella xylostella

COc1c(NC(=O)c2ccc(Br)c(OC)c2C)cccc1C(=O)Nc1c(Cl)cc(C(F)(C(F)(F)F)C(F)(F)C(F)(F)F)cc1Br (stereo not drawn) [B139]
≥ 80%: Heliothis virescens | Spodoptera littoralis | Tetranychus urticae; [1] | Plutella xylostella

COc1c(NC(=O)c2ccc([N+](=O)[O-])cc2C)cccc1C(=O)Nc1c(C)cc(C(F)(C(F)(F)F)C(F)(F)C(F)(F)F)cc1C (stereo not drawn) [F24]
≥ 80%: Heliothis virescens | Spodoptera littoralis | Diabrotica balteata | Tetranychus urticae; [1] | Plutella xylostella

COc1c(NC(=O)c2cc(F)c(C#N)cc2F)cccc1C(=O)Nc1c(Cl)cc(C(F)(C(F)(F)F)C(F)(F)F)cc1Cl [E24]
≥ 80%: Heliothis virescens | Spodoptera littoralis | Diabrotica balteata | Tetranychus urticae; [1] | Plutella xylostella

COc1c(NC(=O)c2ccco2)cccc1C(=O)Nc1c(Cl)cc(C(F)(C(F)(F)F)C(F)(F)C(F)(F)F)cc1Cl (stereo not drawn) [C12]
≥ 80%: Heliothis virescens | Spodoptera littoralis | Diabrotica balteata | Tetranychus urticae; [1] | Plutella xylostella

COc1c(NC(=O)c2ccc(OC(F)(F)F)cc2)cccc1C(=O)Nc1c(C)cc(C(F)(C(F)(F)F)C(F)(F)C(F)(F)F)cc1C (stereo not drawn) [F5]
≥ 80%: Heliothis virescens | Spodoptera littoralis | Tetranychus urticae; [1] | Plutella xylostella

COc1c(NC(=O)c2ccc(OC(F)(F)F)cc2)cccc1C(=O)Nc1c(Cl)cc(C(F)(C(F)(F)F)C(F)(F)C(F)(F)F)cc1Br (stereo not drawn) [B13]
≥ 80%: Heliothis virescens | Spodoptera littoralis | Tetranychus urticae; [1] | Plutella xylostella

COc1c(NC(=O)c2ccc(F)cc2C)cccc1C(=O)Nc1c(C)cc(C(F)(C(F)(F)F)C(F)(F)C(F)(F)F)cc1C (stereo not drawn) [F27]
≥ 80%: Heliothis virescens | Spodoptera littoralis | Diabrotica balteata | Tetranychus urticae; [1] | Plutella xylostella

COc1c(NC(=O)c2cccnc2F)cccc1C(=O)Nc1c(Cl)cc(C(F)(C(F)(F)F)C(F)(F)C(F)(F)F)cc1Br (stereo not drawn) [B194]
≥ 80%: Heliothis virescens | Spodoptera littoralis | Diabrotica balteata | Tetranychus urticae; [1] | Plutella xylostella

COc1c(NC(=O)c2sc(C)nc2C)cccc1C(=O)Nc1c(Cl)cc(C(F)(C(F)(F)F)C(F)(F)C(F)(F)F)cc1Br (stereo not drawn) [B96]
≥ 80%: Heliothis virescens | Spodoptera littoralis | Diabrotica balteata | Tetranychus urticae; [1] | Plutella xylostella

COc1c(NC(=O)c2c(F)cc(F)cc2F)cccc1C(=O)Nc1c(C)cc(C(F)(C(F)(F)F)C(F)(F)C(F)(F)F)cc1C (stereo not drawn) [F25]
≥ 80%: Heliothis virescens | Spodoptera littoralis | Diabrotica balteata | Tetranychus urticae; [1] | Plutella xylostella

COc1c(NC(=O)c2cccc([N+](=O)[O-])c2C)cccc1C(=O)Nc1c(Cl)cc(C(F)(C(F)(F)F)C(F)(F)C(F)(F)F)cc1Br (stereo not drawn) [B69]
≥ 80%: Heliothis virescens | Spodoptera littoralis | Diabrotica balteata | Tetranychus urticae; [1] | Plutella xylostella

COc1c(NC(=O)c2ccc([N+](=O)[O-])cc2Cl)cccc1C(=O)Nc1c(C)cc(C(F)(C(F)(F)F)C(F)(F)C(F)(F)F)cc1C (stereo not drawn) [F28]
≥ 80%: Heliothis virescens | Spodoptera littoralis | Diabrotica balteata | Tetranychus urticae; [1]

COc1c(NC(=O)c2ccc(Br)cc2C)cccc1C(=O)Nc1c(Cl)cc(C(F)(C(F)(F)F)C(F)(F)C(F)(F)F)cc1Br (stereo not drawn) [B138]
≥ 80%: Heliothis virescens | Spodoptera littoralis | Tetranychus urticae; [1] | Plutella xylostella

COc1c(NC(=O)c2ccc(S(C)(=O)=O)cc2)cccc1C(=O)Nc1c(C)cc(C(F)(C(F)(F)F)C(F)(F)C(F)(F)F)cc1C (stereo not drawn) [F18]
≥ 80%: Heliothis virescens | Spodoptera littoralis | Diabrotica balteata | Tetranychus urticae; [1] | Plutella xylostella

COc1c(NC(=O)c2ccc([N+](=O)[O-])o2)cccc1C(=O)Nc1c(Cl)cc(C(F)(C(F)(F)F)C(F)(F)C(F)(F)F)cc1Br (stereo not drawn) [B61]
≥ 80%: Heliothis virescens | Spodoptera littoralis | Diabrotica balteata | Tetranychus urticae; [1] | Plutella xylostella

COc1c(NC(=O)c2ccc(C#N)cc2Cl)cccc1C(=O)Nc1c(Cl)cc(C(F)(C(F)(F)F)C(F)(F)F)cc1Br [G2]
≥ 80%: Heliothis virescens | Spodoptera littoralis | Diabrotica balteata | Tetranychus urticae; [1] | Plutella xylostella

COc1c(NC(=O)c2ccc([N+](=O)[O-])cc2Cl)cccc1C(=O)Nc1c(Cl)cc(C(F)(C(F)(F)F)C(F)(F)C(F)(F)F)cc1Br (stereo not drawn) [B11]
≥ 80%: Heliothis virescens | Spodoptera littoralis | Tetranychus urticae; [1] | Plutella xylostella

COc1c(NC(=O)c2ccc([N+](=O)[O-])c(Cl)c2)cccc1C(=O)Nc1c(Cl)cc(C(F)(C(F)(F)F)C(F)(F)C(F)(F)F)cc1Br (stereo not drawn) [B170]
≥ 80%: Heliothis virescens | Spodoptera littoralis | Diabrotica balteata | Tetranychus urticae; [1] | Plutella xylostella

COc1c(NC(=O)c2c(Cl)cccc2Cl)cccc1C(=O)Nc1c(Cl)cc(C(F)(C(F)(F)F)C(F)(F)C(F)(F)F)cc1Br (stereo not drawn) [B158]
≥ 80%: Heliothis virescens | Spodoptera littoralis | Diabrotica balteata | Tetranychus urticae; [1] | Plutella xylostella

COc1c(NC(=O)c2ccc(C#N)cc2C)cccc1C(=O)Nc1c(Cl)cc(C(F)(C(F)(F)F)C(F)(F)F)cc1Br [G1]
≥ 80%: Heliothis virescens | Spodoptera littoralis | Diabrotica balteata | Tetranychus urticae; [1] | Plutella xylostella

COc1c(NC(=O)c2c(C)cc(Br)cc2Cl)cccc1C(=O)Nc1c(Cl)cc(C(F)(C(F)(F)F)C(F)(F)C(F)(F)F)cc1Br (stereo not drawn) [B159]
≥ 80%: Heliothis virescens | Spodoptera littoralis | Diabrotica balteata | Tetranychus urticae; [1] | Plutella xylostella

COc1c(NC(=O)c2ccc(C#N)cc2Cl)cccc1C(=O)Nc1c(Cl)cc(C(F)(C(F)(F)F)C(F)(F)C(F)(F)F)cc1Br (stereo not drawn) [B198]
≥ 80%: Heliothis virescens | Spodoptera littoralis | Tetranychus urticae; [1] | Plutella xylostella

COc1c(NC(=O)c2ccccc2F)cccc1C(=O)Nc1c(C)cc(C(F)(C(F)(F)F)C(F)(F)C(F)(F)F)cc1C (stereo not drawn) [F1]
≥ 80%: Heliothis virescens | Spodoptera littoralis | Diabrotica balteata | Tetranychus urticae; [1] | Plutella xylostella

COc1c(NC(=O)c2cccc([N+](=O)[O-])c2)cccc1C(=O)Nc1c(Cl)cc(C(F)(C(F)(F)F)C(F)(F)C(F)(F)F)cc1Br (stereo not drawn) [B193]
≥ 80%: Heliothis virescens | Spodoptera littoralis | Tetranychus urticae; [1] | Plutella xylostella

COc1c(NC(=O)c2ccc([N+](=O)[O-])cc2C)cccc1C(=O)Nc1c(Cl)cc(C(F)(C(F)(F)F)C(F)(F)C(F)(F)F)cc1Br (stereo not drawn) [B196]
≥ 80%: Spodoptera littoralis | Tetranychus urticae; [1] | Plutella xylostella

CCc1cc(C(F)(C(F)(F)F)C(F)(F)F)cc(C)c1NC(=O)c1cccc(NC(=O)c2c(F)cc(C#N)cc2F)c1OC [J2]
≥ 80%: Heliothis virescens | Diabrotica balteata | Tetranychus urticae; [1] | Plutella xylostella
